In patent EP2949324A1, “Prevention and/or treatment of ischemia/reperfusion injury” (Consorci Institut Catala de Ciencies Cardiovasculars, priority 2014, dated 2015):

Key:
[1] = test system: endothelin receptors; settings: cited from earlier work; for cardiac function and myocardial relaxation: at 1 h; for difference compared to placebo-treated animals: at 24 h
[2] = test system: RyR2; experiment: Real-time PCR of calcium handling receptor mRNA; format: in vivo, swine
Experimental: (§1) Tissue samples obtained from the IM (2.5 h post-reperfusion)/scar (3 weeks post-MI) and NIM of all animals were pulverized and homogenized in Tripure® or lysis buffer for RNA and protein isolation, respectively.
(§2) Transcriptomic analysis: It was analyzed by real-time PCR (Applied Biosystems) mRNA levels for: 1) apoptosis-related markers [extrinsic-(Fas Receptor/CD95 and caspase-8), intrinsic-(Bax, Bcl2, and P53) pathways and caspase-3]; 2) intracellular calcium handling receptors [sarcoendoplasmic reticulum Ca^2+ATPase 2 (SERCA2) and the ryanodine receptor (RyR2)]; and 3) fibrous tissue formation (collagen, Smad2 and Smad3). The threshold cycle values were determined and normalized to the housekeeping gene 18S rRNA.

[3] = test system: SERCA2; experiment: Real-time PCR of calcium handling receptor mRNA; format: in vivo, swine
Experimental: as §1, §2

[4] = test system: oxLDL; experiment: HDL-antioxidant activity (ability of HDL to reverse oxidation of LDL); format: in vivo, swine; settings: HDL isolated […] post-reperfusion; p<0.05
Experimental: (§3) Blood samples were collected at 2.5 h post-reperfusion and 3 weeks post-MI to evaluate lipoprotein resistance to oxidation. The inventors firstly assessed HDL-antioxidant activity by a method based on the ability of HDL to reverse oxidation of LDL. Results were expressed as the percentage of total oxidized LDL considering that control oxLDL is 100%. In addition, resistance of LDL against copper induced in vitro oxidation was also determined in EDTA-blood samples as previously described. The inventors also determined the lipid peroxide content of oxidized-LDL by assessing thiobarbituric-acid-reactive substances (TBARS).

[5] = test system: pig model of closed-chest coronary balloon occlusion/reperfusion; experiment: Reperfusion-related arrhythmias and hemodynamic monitoring; format: in vivo, swine
Experimental: This hyperlipidemic diet contains 24.82% proteins, 64.20% carbohydrates, 10.98% fats and 16,834.7 kJ. […] After this 10 day diet period animals underwent a closed-chest 90 min mid-left anterior descending (LAD) coronary balloon occlusion. […] At minute 90, the balloon was deflated to achieve coronary artery reperfusion. […] The incidence of reperfusion-related arrhythmias during the first 2.5 h upon balloon deflation was documented in all animals. Animals had continuous ECG and hemodynamic monitoring throughout all procedures.

[6] = test system: apoptosis-related markers; experiment: Apoptosis-related markers in ischemic myocardium (real-time PCR, Western blot, TUNEL); format: in vivo, swine
Experimental: as §1, §2
(§4) Western Blot analysis: Protein levels of: 1) apoptosis markers (truncated-caspase-3); 2) cardioprotective kinases [PKC-ε and PKC-ε phosphorylated at Ser^729 (Santa Cruz) and Akt/PKB (Santa Cruz) and Akt phosphorylated at Ser^473 (Cell signaling)]; 3) total eNOS and eNOS phosphorilated at Ser^1177 (Cell Signaling); and 4) fibrosis [TGFP type II receptor (TPRII; Abcam) and phosphorylated-Smad2/3 (Ser^423/425; Santa Cruz)] were assessed.
Isolated mitochondrial extracts were incubated against Bcl-2 phosphorylated at Ser^87.

[7] = test system: mitochondria isolated from the ischemic myocardium; experiment: Mitochondrial membrane potential by flow cytometry (JC-1); format: in vivo, swine; settings: […] of reperfusion, p<0.05
Experimental: Mitochondria were isolated from the ischemic myocardium of pigs subjected to 2.5 h of reperfusion as previously reported (Boehm et al. 2001 Am J Physiol Heart Circ Physiol 280: H977-983). Mitochondrial membrane potential (Δψm) was measured by flow cytometry using the ratiometric dye 5,5',6,6'-tetrachloro-1,1',3,3'-tetraethylbenzimidazol carbocyanine iodide (JC-1; Molecular Probes). Values were expressed as red fluorescence activity. Isolated mitochondria treated with valinomycin (Sigma), which decreases Δψm, were used as control.

[8] = test system: pig model of closed-chest coronary balloon occlusion/reperfusion; experiment: Transthoracic echocardiography (LVEF, SF); format: in vivo, swine
Experimental: Transthoracic echocardiography assessment was performed in all animals before inducing ischemia (baseline), after 75 min of ischemia (prior β-OH-S infusion), 2.5 h post-reperfusion and 3 weeks post-MI using an echocardiographyc system Phillips iE33 equipped with a S5-1 Sector Array transducer. Left ventricle ejection fraction (LVEF) and shortening fraction (SF) were measured in the short-axis M-mode right parasternal projection in a plane below the mitral valves and perpendicular to the LV (left ventricle).

[9] = test system: Akt/eNOS signaling pathway; experiment: Akt/eNOS signaling (Western blot) in myocardium and coronary arteries; format: in vivo, swine
Experimental: as §4
In addition, 3 weeks post-MI, the coronary arteries of all animals were isolated, cleaned of surrounding tissue and snap frozen for further analysis of coronary phosphorylated-eNOS protein expression.

[10] = test system: RhoA; experiment: RhoA in total and cytosolic-membrane fractions of cardiac tissue (immunoblotting); format: in vivo, swine; settings: for total amount of RhoA: myocardium, […] post-reperfusion and 3 weeks post-MI
Experimental: RhoA (Santa Cruz) was determined in total and cytosolic-membrane fractions of jeopardized cardiac tissue of all animals as previously described by Vilahur G 2009 (ad supra).

[11] = test system: pig model of closed-chest coronary balloon occlusion/reperfusion; experiment: Vascular/cardiac DNA-oxidative damage (8-hydroxyguanosine staining); format: in vivo, swine; settings: […] post-reperfusion
Experimental: (§5) Paraffin-embedded LAD and ischemic myocardial tissue of animals sacrificed 2.5 h post-reperfusion were cut into 5-µm-thick for 8-hydroxyguanosine staining (Abcam ab48508), a measurement indicative of oxidative stress-induced DNA-damage. In addition, optimal cutting temperature (OCT)-embedded ischemic myocardial tissue of animals sacrificed 2.5 h post-reperfusion was stained for neutrophils detection (anti-neutrophil elastase; Abcam). Staining was calculated by a single blinded observer from an average of 5-fields/animal as % of stained area. Images were captured by Nikon Eclipse 80i microscope and digitized by Retiga 1300i Fast camera.

[12] = test system: pig model of closed-chest coronary balloon occlusion/reperfusion; experiment: Neutrophil detection in ischemic myocardium (anti-neutrophil elastase staining); format: in vivo, swine; settings: […] post-reperfusion, p<0.05
Experimental: as §5

[13] = test system: pig model of closed-chest coronary balloon occlusion/reperfusion; experiment: Morphometric determination of infarct size (Evan's Blue / TTC); format: in vivo, swine; settings: single loading dose 0.3 mg/kg i.v. prior reperfusion; p<0.05
Experimental: This hyperlipidemic diet contains 24.82% proteins, 64.20% carbohydrates, 10.98% fats and 16,834.7 kJ. […] After this 10 day diet period animals underwent a closed-chest 90 min mid-left anterior descending (LAD) coronary balloon occlusion. […] At minute 90, the balloon was deflated to achieve coronary artery reperfusion. […] The incidence of reperfusion-related arrhythmias during the first 2.5 h upon balloon deflation was documented in all animals. Animals had continuous ECG and hemodynamic monitoring throughout all procedures. 2.5 h post-reperfusion Evan's Blue dye was injected in anesthetized animals through the left atrium to outline the area at risk (AAR) after which the hearts of the animals were arrested with potassium chloride and rapidly excised. Hearts were sectioned into 6 transverse slices parallel to the atrioventricular ring. Consecutive slices were alternatively collected for infarct size analysis (TTC; triphenyltetrazolium chloride staining) and molecular studies of the ischemic myocardium (IM) and non-ischemic myocardium (NIM).

[14] = biological target: Na^+/H^+ exchange system (Homo sapiens, UniProt P19634); settings: recent clinical trial; cited from earlier work
Na^+/H^+ exchange system, sequence (P19634 whole entry, the tested form may be a part): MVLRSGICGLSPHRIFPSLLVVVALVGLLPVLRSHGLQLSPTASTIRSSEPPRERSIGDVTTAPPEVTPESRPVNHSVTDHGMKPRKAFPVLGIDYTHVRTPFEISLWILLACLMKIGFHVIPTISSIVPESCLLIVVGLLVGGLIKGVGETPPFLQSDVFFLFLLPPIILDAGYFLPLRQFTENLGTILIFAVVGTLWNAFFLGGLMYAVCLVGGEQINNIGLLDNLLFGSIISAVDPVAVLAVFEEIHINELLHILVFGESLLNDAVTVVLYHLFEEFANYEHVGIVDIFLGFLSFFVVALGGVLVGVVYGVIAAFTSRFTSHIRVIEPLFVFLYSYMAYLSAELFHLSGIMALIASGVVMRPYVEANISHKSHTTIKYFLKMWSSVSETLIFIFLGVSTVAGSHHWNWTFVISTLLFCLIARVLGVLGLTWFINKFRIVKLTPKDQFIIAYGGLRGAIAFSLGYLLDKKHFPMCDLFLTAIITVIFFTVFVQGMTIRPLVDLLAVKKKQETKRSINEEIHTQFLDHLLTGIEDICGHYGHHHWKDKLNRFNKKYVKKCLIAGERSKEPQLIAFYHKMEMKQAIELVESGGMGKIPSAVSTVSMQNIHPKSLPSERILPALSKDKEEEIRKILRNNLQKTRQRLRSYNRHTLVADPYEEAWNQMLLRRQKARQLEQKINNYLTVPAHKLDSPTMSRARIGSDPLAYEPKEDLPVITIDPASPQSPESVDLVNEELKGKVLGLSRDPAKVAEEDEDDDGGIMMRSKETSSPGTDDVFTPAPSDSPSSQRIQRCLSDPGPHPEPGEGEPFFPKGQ

[15] = test system: canine hepatic ischemia/reperfusion model; settings: given prior to reperfusion; cited from earlier work
[16] = test system: PKCε; experiment: PKCε expression/activation in the forming scar (Western blot); format: in vivo, swine; settings: scar tissue, compared to placebo-control animals
Experimental: as §4

[17] = test system: TβRII/Smad2/3 signaling pathway; experiment: Reparative fibrosis of the forming scar (TβRII/Smad2/3, myofibroblasts, collagen); format: in vivo, swine
Experimental: as §2, §4
(§6) To that end, serially cut 5 µm sections from OCT-embedded samples were stained for lipids (oil red-O, ORO) and interstitial collagen (Sirius Red). Images were captured with a Nikon eclipse 80i microscope and digitalized by a Retiga-1300i. Staining was calculated by a single blinded observer from an average of 5-fields/sample as content (%)=[positive stained area/(total tissue area- vascular luminal areas)]x100 using ImageJ®.
In addition, myofibroblasts detection in the scar tissue was performed by double staining with mouse monoclonal vimentin (Dako) and rabbit polyclonal alpha-SMA 1:50 (Abeam). Alexa fluor 488 donkey anti-mouse and alexa fluor 546 goat anti-rabbit were used as secondary antibodies, respectively and Hoechst for nuclear staining. Images were captured by confocal microscopy (20x).

[18] = test system: LDL; experiment: Resistance of LDL against copper induced in vitro oxidation and TBARS; format: in vivo, swine; settings: 3 week oral treatment; p<0.05
Experimental: as §3

[19] = test system: pig model of closed-chest coronary balloon occlusion/reperfusion; experiment: Myocardial lipotoxicity: oil red-O staining and lipid characterization (TLC) of scar and NIM; format: in vivo, swine; settings: 3 weeks post-MI
Experimental: as §6

[20] = cited from earlier work; for infarct size: given pre-ischemia
[21] = test system: canine cardiac ischemia model; settings: infused during reperfusion; cited from earlier work
[22] = ischemic myocardium, […] post-reperfusion

BQ-788
cardiac function and myocardial relaxation [1]: significantly better
difference compared to placebo-treated animals [1]: no longer evident

BQ-123
cardiac function and myocardial relaxation [1]: significantly better
difference compared to placebo-treated animals [1]: no longer evident

CCC(C)(C)C(=O)OC1CC(C)C=C2C=CC(C)C(CCC(O)CC(O)CC(=O)O)C21 (stereo not drawn) [β-OH-S, β-hydroxy acid derivative of simvastatin]
RyR2 mRNA ([2]; NIM): 0.2±0.07 RyR2/18S rRNA
RyR2 mRNA ([2]; ischemic myocardium): 0.14±0.03 RyR2/18S rRNA
SERCA2 mRNA ([3]; NIM): 1.5±0.3 SERCA/18S rRNA
SERCA2 mRNA ([3]; ischemic myocardium): 1.9±0.5 SERCA/18S rRNA
higher HDL antioxidant activity against LDL oxidation relative to controls [4]: 25%
incidence of reperfusion-related ventricular arrhythmias ([5]; first […] upon balloon deflation, 3 out of 12): 25 % animals
hemodynamic parameters (heart rate and mean blood pressure) ([5]; throughout the study): not affected
mitochondrial Bcl-2 activation [6, 22]: diminished
truncated caspase-3 expression [6, 22]: reduced
apoptotic cell counts (TUNEL staining) ([6]; ischemic myocardium, compared to vehicle/control, data not shown): low apoptotic cell counts
upregulation of genes of death receptor- and mitochondrial-related apoptotic pathways ([6]; jeopardized myocardium, […] post-reperfusion): prevented the upregulation
Δψm relative to vehicle/control [7]: 2 times
LVEF improvement ([8]; […] after reperfusion): 9.4%
SF improvement ([8]; […] after reperfusion): 6.0%
P-Akt/P-eNOS pathway ([9]; ischemic myocardium, acute administration): activating
RhoA membrane translocation (activation), membrane-to-cytosol ratio ([10]; intravenous infusion, ischemic myocardium, […] post-reperfusion, p<0.001 vs control): markedly decreased
total amount of RhoA [10]: unchanged
reperfusion-related oxidative DNA damage ([11]; coronary artery): absence of DNA oxidative damage
reperfusion-related oxidative DNA damage ([11]; ischemic myocardial tissue): absence of DNA oxidative damage
attenuation of neutrophils infiltration as compared to vehicle/control [12]: ~70%
salvage of the LV-at-risk as compared to reperfusion alone [13]: 40%

CC(C)c1ccc(C(=O)NC(=N)N)cc1S(C)(=O)=O [Cariporide]
reperfusion injury (improved left ventricular (LV) dysfunction) [14]: attenuation of reperfusion injury

Nc1ncnc2c1ncn2[C@@H]1O[C@H](CO)[C@@H](O)[C@H]1O [adenosine, Adenosine]
aspartate aminotransferase (AST) and alanine transaminase (ALT) [15]: attenuated the rise
hepatic glutathione stores [15]: restored
neutrophil accumulation and superoxide radical production [15]: inhibition

CCC(C)(C)C(=O)O[C@H]1C[C@@H](C)C=C2C=C[C@H](C)[C@H](CC[C@@H]3C[C@@H](O)CC(=O)O3)[C@H]21 [Simvastatin, (1S,3R,7S,8S,8aR)-8-{2-[(2R,4R)-4-hydroxy-6-oxotetrahydro-2H-pyran-2-yl]ethyl}-3,7-dimethyl-1,2,3,7,8,8a hexahydronaphthalen-1-yl 2,2-dimethylbutanoate]
PKCε expression and activation [16]: enhanced both the expression and activation
Smad3 mRNA levels ([17]; different cardiac regions, 3 weeks post-MI): no changes
collagen fibrils deposition ([17]; healing scar, compared to control animals and NIM): higher
α-SMA/vimentin positive myofibroblasts ([17]; healing scar, data not shown): higher detection
Smad2/3 (downstream effector of TβRII) ([17]; scar area, 3 weeks post-MI): activation
TβRII protein expression ([17]; scar area, 3 weeks post-MI): marked and significant increase
Smad2 gene expression ([17]; scar tissue, 3 weeks post-MI): significantly upregulated
decrease in TBARS levels as compared to the experimental day [18]: 32%
prolongation of the lag time as compared to control/placebo animals [18]: 4 times
LVEF and SF improvement ([8]; up to 3 weeks post-MI, oral simvastatin): persisted
P-eNOS ([9]; coronary arteries at 3-weeks post-MI): enhanced
P-Akt/P-eNOS pathway activation ([9]; evolving scar up to 3 weeks post-AMI): persisted
free-cholesterol content ([19]; different cardiac zones): No differences
less cholesteryl-ester accumulation as compared to placebo-controls ([19]; forming scar): 50%
total amount of RhoA [10]: unchanged
decrease of RhoA membrane translocation ([10]; scar, after the 3-week oral treatment, p<0.001 vs control): persisted

O=C(NCCO[N+](=O)[O-])c1cccnc1 [nicorandil]
infarct size [20]: reduced infarct size in a dose-dependent manner

CCNC(=O)[C@H]1O[C@@H](n2cnc3c(N)nc(NCCc4ccc(CCC(=O)O)cc4)nc32)[C@H](O)[C@@H]1O [CGS-21680]
Bax [21]: downregulated
Bcl-2 levels [21]: upregulated
neutrophil accumulation in the perinecrotic myocardium [21]: reduced

CS(=O)(=O)O.Cc1cccc2c1cc(C(=O)N=C(N)N)n2C [SM-20550]
effect on infarct size ([20]; given post-ischemia): beneficial
infarct size [20]: reduced infarct size in a dose-dependent manner
